# Patent US10335409B2 (priority 2012, dated 2019)
# Where two headings read alike, the source gives them in different places.
# Legend:
# [1] = tested on: genotype 4a (ED43) stable HCV replicon in Huh-7-derived cells; test: Stable subgenomic HCV replicon EC50, genotype 4a (Renilla luciferase); assay type: cell-based, hepatitis C virus; conditions: 72 h, read-out: EC50 4A RLUC
# How it was run: (§1)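 Compounds, three-fold diluted, were applied to Huh-7-derived cells harbouring luciferase replicons (genotype 1a H77, 1b Con1, 2a JFH-1, 4a ED43, with strain-specific adaptive mutations). Seventy-two hours later, intracellular replication was gauged by Renilla luciferase activity and EC50 derived by regression.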
# [2] = tested on: genotype 1b NS3/4a protease inhibitor resistant variant D168A transient HCV replicon in Huh-7-derived cells; test: Transient-transfected HCV replicon EC50, genotype 1b D168A; assay type: cell-based, hepatitis C virus; conditions: 72 h
# [3] = tested on: genotype 2a (JFH-1) stable HCV replicon in Huh-7-derived cells; test: Stable subgenomic HCV replicon EC50, genotype 2a (Renilla luciferase); assay type: cell-based, hepatitis C virus; conditions: stable replicon genotype 2a, 72 h, read-out: EC50 2A RLUC
# How it was run: as §1
# [4] = tested on: genotype 1b (Con1) wild type transient HCV replicon in Huh-7-derived cells; test: Transient-transfected HCV replicon EC50, genotype 1b wild type; assay type: cell-based, hepatitis C virus; conditions: transient-transfected replicon genotype 1b wild type, 72 h, read-out: EC50 1B WT
# [5] = tested on: genotype 1b (Con1) stable HCV replicon in Huh-7-derived cells; test: Stable subgenomic HCV replicon EC50, genotype 1b (Renilla luciferase); assay type: cell-based, hepatitis C virus; conditions: stable replicon genotype 1b, 72 h, read-out: EC50 1B RLUC
# How it was run: as §1
# [6] = tested on: genotype 3a (S52) stable HCV replicon in Huh-7-derived cells; test: Stable subgenomic HCV replicon EC50, genotype 3a (Renilla luciferase); assay type: cell-based, hepatitis C virus; conditions: 72 h, read-out: EC50 3A RLUC
# [7] = tested on: genotype 1a (H77) stable HCV replicon in Huh-7-derived cells; test: Stable subgenomic HCV replicon EC50, genotype 1a (Renilla luciferase); assay type: cell-based, hepatitis C virus; conditions: stable replicon genotype 1a, 72 h, read-out: EC50 1A RLUC
# How it was run: as §1
# [8] = tested on: genotype 1a (H77) wild type transient HCV replicon in Huh-7-derived cells; test: Transient-transfected HCV replicon EC50, genotype 1a wild type; assay type: cell-based, hepatitis C virus; conditions: transient-transfected replicon genotype 1a wild type, 72 h, read-out: EC50 1A WT
# [9] = target: HCV NS3 protease domain genotype 1b (Hepatitis C virus genotype 1b (isolate Con1), UniProt Q9WMX2, E1202G); test: Ki determination, NS3 protease genotype 1b (fluorogenic depsipeptide substrate); assay type: biochemical; conditions: 50 pM enzyme, NS4A peptide
# Description: Purified NS3 protease domain (amino acids 1-181) of the genotype 1b and 3a virus were generated as above.
# Reactions were run at room temperature in buffer consisting of 50 mM HEPES, 40% glycerol, 0.05% Triton X-100, 10 mM DTT, and 10% DMSO. The final assay solutions contained 50 pM NS3 genotype 1 b protease or 200 pM genotype 3a protease, 20 μM NS4A peptide, and 4 μM substrate (genotype 1b) or 2 μM substrate (genotype 3a). Inhibitor concentrations varied from 100 nM to 5 pM in 3-fold dilutions, and no-inhibitor controls were included.
# Compound dilutions were made in DMSO at 20× final concentration. Reaction mixtures were prepared in 96-well assay plates. A solution of enzyme and NS4A peptide in assay buffer (25 μL volume with both reagents at 4× final concentration) was mixed with 45 μL assay buffer and 5 μL of either inhibitor or DMSO, and pre-incubated at room temperature for 1 hour. The reaction was started by addition of 25 μL substrate solution at 4× final concentration. Plates were mixed vigorously for 5-10 seconds and reactions were allowed to proceed for 90 minutes, fluorescence was measured every 30 s between 90 and 120 minutes reaction time using a Tecan InfiniTe M1000 or PerkinElmer Envision multimode plate reader with an excitation wavelength of 340 nm and an emission wavelength of 490 nm.
# To determine the Ki, rates were plotted as a function of inhibitor concentration, and the data were fit with equation 1 (Morrison, J. F., Biochimica et Biophysica Acta 1969, 185, 269-286) to calculate Ki^app using GraphPad Prism 5. […] Ki was calculated from Ki^app/(1+[[S]/Km]).
# [10] = target: HCV NS3 protease domain genotype 3a (Hepatitis C virus genotype 3a, UniProt Q81258); test: Ki determination, NS3 protease genotype 3a (fluorogenic depsipeptide substrate); assay type: biochemical; conditions: 200 pM enzyme, NS4A peptide
# How it was run: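 The NS3 protease domain (aa 1-181) with 20 μM NS4A peptide was used at 50 pM with 4 μM substrate (1b) or at 200 pM with 2 μM substrate (3a). Inhibitors (100 nM-5 pM) were pre-incubated 1 h at room temperature in HEPES/glycerol/DTT buffer with 10% DMSO. Steady-state rates (90-120 min) gave Ki via the Morrison equation, corrected for active enzyme and [S]/Km.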
# [11] = tested on: genotype 1a NS3/4a protease inhibitor resistant variant R155K transient HCV replicon in Huh-7-derived cells; test: Transient-transfected HCV replicon EC50, genotype 1a R155K; assay type: cell-based, hepatitis C virus; conditions: 72 h
# [12] = tested on: genotype 3a (S52) wild type transient HCV replicon in Huh-7-derived cells; test: Transient-transfected HCV replicon EC50, genotype 3a wild type; assay type: cell-based, hepatitis C virus; conditions: transient-transfected replicon genotype 3a wild type, 72 h; read-out: EC50 3A WT
# [13] = stable replicon genotype 4a, Renilla luciferase
# [14] = stable replicon genotype 3a, Renilla luciferase
# [15] = transient-transfected replicon genotype 1a R155K resistant variant, read-out: EC50 1A R155K
# [16] = Hepatitis C virus, read-out: EC50 1B D168A, transient-transfected replicon genotype 1b D168A resistant variant, 72 h
# [17] = Hepatitis C virus, read-out: EC50 1A R155K, transient-transfected replicon genotype 1a R155K resistant variant, 72 h
# HCV NS3 protease domain genotype 3a, sequence (Q81258 whole entry, looked up, the tested form may be a part): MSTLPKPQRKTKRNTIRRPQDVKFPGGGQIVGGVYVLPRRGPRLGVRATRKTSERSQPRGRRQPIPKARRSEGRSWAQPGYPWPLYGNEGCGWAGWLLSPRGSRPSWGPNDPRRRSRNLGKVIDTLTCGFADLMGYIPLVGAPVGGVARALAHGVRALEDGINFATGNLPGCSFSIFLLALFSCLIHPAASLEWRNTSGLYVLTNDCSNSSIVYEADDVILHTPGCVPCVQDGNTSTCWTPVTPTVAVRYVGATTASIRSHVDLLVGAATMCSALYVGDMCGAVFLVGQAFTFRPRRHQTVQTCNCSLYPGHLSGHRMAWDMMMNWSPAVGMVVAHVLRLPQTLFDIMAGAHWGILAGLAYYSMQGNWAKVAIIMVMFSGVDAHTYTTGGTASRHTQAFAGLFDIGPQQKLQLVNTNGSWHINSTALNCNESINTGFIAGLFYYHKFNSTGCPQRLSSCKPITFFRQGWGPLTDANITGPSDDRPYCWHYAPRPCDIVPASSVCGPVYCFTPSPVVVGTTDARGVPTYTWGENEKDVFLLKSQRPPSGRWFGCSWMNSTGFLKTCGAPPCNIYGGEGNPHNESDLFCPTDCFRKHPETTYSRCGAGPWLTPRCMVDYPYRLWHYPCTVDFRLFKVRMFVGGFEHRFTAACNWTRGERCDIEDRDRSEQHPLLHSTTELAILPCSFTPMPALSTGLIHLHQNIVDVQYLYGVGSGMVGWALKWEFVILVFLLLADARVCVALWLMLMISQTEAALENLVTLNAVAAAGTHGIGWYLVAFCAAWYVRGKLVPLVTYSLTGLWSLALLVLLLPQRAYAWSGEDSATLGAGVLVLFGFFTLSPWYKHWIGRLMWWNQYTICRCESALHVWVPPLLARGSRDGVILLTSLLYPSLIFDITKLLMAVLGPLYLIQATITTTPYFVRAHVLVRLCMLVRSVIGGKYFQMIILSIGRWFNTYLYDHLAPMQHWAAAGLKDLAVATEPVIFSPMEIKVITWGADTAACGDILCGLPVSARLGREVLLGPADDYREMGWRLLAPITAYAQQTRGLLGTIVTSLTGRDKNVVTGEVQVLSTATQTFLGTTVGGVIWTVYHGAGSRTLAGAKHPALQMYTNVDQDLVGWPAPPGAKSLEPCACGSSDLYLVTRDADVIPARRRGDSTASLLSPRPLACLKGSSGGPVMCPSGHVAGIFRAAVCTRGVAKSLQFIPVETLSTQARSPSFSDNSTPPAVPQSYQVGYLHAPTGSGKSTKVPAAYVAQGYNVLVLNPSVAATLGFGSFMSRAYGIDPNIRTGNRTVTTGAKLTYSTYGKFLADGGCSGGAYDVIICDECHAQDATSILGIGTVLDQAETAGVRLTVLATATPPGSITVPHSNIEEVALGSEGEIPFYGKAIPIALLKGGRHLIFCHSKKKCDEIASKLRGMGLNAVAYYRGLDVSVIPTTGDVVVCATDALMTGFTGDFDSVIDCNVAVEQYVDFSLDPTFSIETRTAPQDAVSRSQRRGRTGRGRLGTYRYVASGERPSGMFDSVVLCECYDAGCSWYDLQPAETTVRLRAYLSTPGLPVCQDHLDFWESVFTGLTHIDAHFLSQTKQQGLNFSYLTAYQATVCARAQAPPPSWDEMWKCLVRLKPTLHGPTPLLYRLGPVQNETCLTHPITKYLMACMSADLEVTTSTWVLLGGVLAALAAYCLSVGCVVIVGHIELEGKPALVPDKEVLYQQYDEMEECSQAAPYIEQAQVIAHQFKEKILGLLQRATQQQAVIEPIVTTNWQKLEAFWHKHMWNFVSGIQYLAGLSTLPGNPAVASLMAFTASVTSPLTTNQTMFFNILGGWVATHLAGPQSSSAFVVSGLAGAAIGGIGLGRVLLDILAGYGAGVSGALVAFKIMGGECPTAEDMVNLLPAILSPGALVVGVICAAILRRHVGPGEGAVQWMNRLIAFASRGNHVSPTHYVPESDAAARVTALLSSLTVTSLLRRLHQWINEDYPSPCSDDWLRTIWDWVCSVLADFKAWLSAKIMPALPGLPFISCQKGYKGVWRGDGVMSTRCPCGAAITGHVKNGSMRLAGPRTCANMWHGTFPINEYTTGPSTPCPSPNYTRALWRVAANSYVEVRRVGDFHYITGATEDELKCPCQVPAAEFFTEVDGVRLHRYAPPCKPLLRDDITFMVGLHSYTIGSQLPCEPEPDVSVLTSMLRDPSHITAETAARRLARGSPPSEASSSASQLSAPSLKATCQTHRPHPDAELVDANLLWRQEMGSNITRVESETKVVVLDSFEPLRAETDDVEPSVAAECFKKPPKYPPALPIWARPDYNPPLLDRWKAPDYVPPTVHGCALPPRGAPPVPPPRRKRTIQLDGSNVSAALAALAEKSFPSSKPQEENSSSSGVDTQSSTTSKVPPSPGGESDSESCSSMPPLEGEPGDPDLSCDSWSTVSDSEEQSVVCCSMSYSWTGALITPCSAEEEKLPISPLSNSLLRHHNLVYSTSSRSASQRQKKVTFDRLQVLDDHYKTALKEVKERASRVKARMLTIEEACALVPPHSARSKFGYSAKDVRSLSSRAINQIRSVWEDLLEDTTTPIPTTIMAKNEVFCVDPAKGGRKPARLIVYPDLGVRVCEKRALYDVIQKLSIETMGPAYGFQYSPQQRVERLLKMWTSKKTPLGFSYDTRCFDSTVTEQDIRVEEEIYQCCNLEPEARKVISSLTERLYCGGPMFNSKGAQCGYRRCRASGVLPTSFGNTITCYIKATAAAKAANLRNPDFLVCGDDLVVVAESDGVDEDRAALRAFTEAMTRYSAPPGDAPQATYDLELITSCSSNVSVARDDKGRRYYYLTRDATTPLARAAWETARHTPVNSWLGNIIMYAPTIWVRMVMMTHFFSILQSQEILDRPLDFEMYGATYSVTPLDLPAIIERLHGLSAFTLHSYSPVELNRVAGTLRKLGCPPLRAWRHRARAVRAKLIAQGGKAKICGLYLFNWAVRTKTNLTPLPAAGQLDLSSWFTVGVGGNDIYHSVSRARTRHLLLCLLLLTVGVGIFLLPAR
# HCV NS3 protease domain genotype 1b, sequence (Q9WMX2 1027-1208 E1202G): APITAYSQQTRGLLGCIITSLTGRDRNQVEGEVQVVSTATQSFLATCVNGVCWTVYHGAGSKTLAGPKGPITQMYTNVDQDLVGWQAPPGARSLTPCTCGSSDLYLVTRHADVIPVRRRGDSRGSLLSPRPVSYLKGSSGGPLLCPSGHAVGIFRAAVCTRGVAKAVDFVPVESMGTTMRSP
compound,measurement,setting,value
"COc1ccc2nc3c(nc2c1)O[C@H]1CN(C(=O)[C@H](C(C)(C)C)NC(=O)O[C@@H]2C[C@H]2CCCCC3)[C@H](C(=O)N[C@]2(C(=O)NS(=O)(=O)C3(C)CC3)C[C@H]2C(F)F)[C@@H]1C1CC1 [Example 31, (1aR,5S,8S,9S,10R,22aR)-5-tert-butyl-9-cyclopropyl-N-[(1R,2R)-2-(difluoromethyl)-1-{[(1-methylcyclopropyl)sulfonyl]carbamoyl}cyclopropyl]-14-methoxy-3,6-dioxo-1,1a,3,4,5,6,9,10,18,19,20,21,22,22a-tetradecahydro-8H-7,10-methanocyclopropa[18,19][1,10,3,6]dioxadiazacyclononadecino[11,12-b]quinoxaline-8-carboxamide]",EC50,[1]; [13],20 nM
same,EC50,"[2]; transient-transfected replicon genotype 1b D168A resistant variant, read-out: EC50 1B D168A",805 nM
same,EC50,[3],63 nM
same,EC50,[4],6.6 nM
same,EC50,[5],18 nM
same,EC50,[6]; [14],2070 nM
same,EC50,[7],40 nM
same,EC50,[8],27 nM
same,Ki,[9],0.13 nM
same,Ki,[10],4.9 nM
same,EC50,[11]; [15],154 nM
"COc1ccc2nc3c(nc2c1)O[C@H]1CN(C(=O)[C@H](C2(C)CCCC2)NC(=O)O[C@@H]2C[C@H]2CCCCC3)[C@H](C(=O)N[C@]2(C(=O)NS(=O)(=O)C3(C)CC3)C[C@H]2C(F)F)[C@@H]1C [Example 38, (1aR,5S,8S,9S,10R,22aR)—N-[(1R,2R)-2-(difluoromethyl)-1-{[(1-methylcyclopropyl)sulfonyl]carbamoyl}cyclopropyl]-14-methoxy-9-methyl-5-(1-methylcyclopentyl)-3,6-dioxo-1,1a,3,4,5,6,9,10,18,19,20,21,22,22a-tetradecahydro-8H-7,10-methanocyclopropa[18,19][1,10,3,6]dioxadiazacyclononadecino[11,12-b]quinoxaline-8-carboxamide]",EC50,[1]; Hepatitis C virus,5.5 nM
same,EC50,[2]; [16],25 nM
same,EC50,[3]; Hepatitis C virus,5.4 nM
same,EC50,[4]; Hepatitis C virus,2.8 nM
same,EC50,[5]; Hepatitis C virus,4.2 nM
same,EC50,[6]; Hepatitis C virus,151 nM
same,EC50,[7]; Hepatitis C virus,7.8 nM
same,EC50,[8]; Hepatitis C virus,4.5 nM
same,Ki,[9],0.03 nM
same,Ki,[10],0.7 nM
same,EC50,[11]; [17],8.4 nM
"COc1ccc2nc3c(nc2c1)O[C@H]1CN(C(=O)[C@H](C(C)(C)C)NC(=O)O[C@@H]2CCN(C(C)=O)C2CCCCC3)[C@H](C(=O)N[C@]2(C(=O)NS(=O)(=O)C3(C)CC3)C[C@H]2C(F)F)[C@@H]1C (stereo partly drawn) [Example 80, (3aR,7S,10S,11S,12R)-1-acetyl-7-tert-butyl-N-[(1R,2R)-2-(difluoromethyl)-1-{[(1-methylcyclopropyl)sulfonyl]carbamoyl}cyclopropyl]-16-methoxy-11-methyl-5,8-dioxo-1,2,3,3a,5,6,7,8,11,12,20,21,22,23,24,24a-hexadecahydro-10H-9,12-methanopyrrolo[2′,3′:18,19][1,10,3,6]dioxadiazacyclononadecino[11,12-b]quinoxaline-10-carboxamide]",EC50,[1]; Hepatitis C virus,1180 nM
same,EC50,[2]; [16],443 nM
same,EC50,[3]; Hepatitis C virus,748 nM
same,EC50,[4]; Hepatitis C virus,53 nM
same,EC50,[5]; Hepatitis C virus,344 nM
same,EC50,[6]; Hepatitis C virus,44400 nM
same,EC50,[7]; Hepatitis C virus,1130 nM
same,EC50,[8]; Hepatitis C virus,403 nM
same,Ki,[9],0.49 nM
same,Ki,[10],13 nM
same,EC50,[11]; [17],2860 nM
"(1aR,5S,8S,9S,10R,22aR)-5-tert-butyl-N-[(1R,2R)-2-(difluoromethyl)-1-{[(1-methylcyclopropyl)sulfonyl]carbamoyl}cyclopropyl]-8-fluoro-14-methoxy-9-methyl-3,6-dioxo-1,1a,3,4,5,6,9,10,18,19,20,21,22,22a-tetradecahydro-8H-7,10-methanocyclopropa[18,19][1,10,3,6]dioxadiazacyclononadecino[1,12-b]quinoxaline-8-carboxamide [Example 47]",EC50,[1]; [13],4.2 nM
same,EC50,[12],17 nM
same,EC50,[3],12 nM
same,EC50,[4],2 nM
same,EC50,[5],3.6 nM
same,EC50,[6]; [14],58 nM
same,EC50,[7],3.8 nM
same,EC50,[8],5.4 nM
same,Ki,[9],0.07 nM
same,Ki,[10],0.19 nM
same,EC50,[11]; [15],6.1 nM
